The record followed here is patent US6951881B2, “(1-substituted-indol-3-yl) alkylidenehydrazinecarboximidamide derivatives as 5-hydroxytryptamine-6 ligands” (Wyeth, priority 2002, dated 2005).

In this assay the target is T1, human cloned 5-HT6 receptors (Homo sapiens, UniProt P50406).
T1 construct: expressed in transfected cells; host or cells: HeLa cells
The assay is classed as binding. Conditions: test compound dose 1000 nM; displacement of [3H]-LSD. The method, then: This operation is repeated.
The reaction is allowed to proceed in the dark for 120 min at room temperature, at which time, the bound ligand-receptor complex is filtered off on a 96 well unifilter with a Packard Filtermate® 196 Harvester. The bound complex caught on the filter disk is allowed to air dry and the radioactivity is measured in a Packard TopCount® equipped with six photomultiplier detectors, after the addition of 40.0 μl Microscint®-20 scintillant to each shallow well. The unifilter plate is heat-sealed and counted in a PackardTopCount® with a tritium efficiency of 31.0%.
Specific binding to the 5-HT6 receptor is defined as the total radioactivity bound less the amount bound in the presence of 10.0 μM unlabeled methiothepin. Binding in the presence of varying concentrations of test compound is expressed as a percentage of specific binding in the absence of test compound. The results are plotted as logit % bound versus log concentration of test compound. Nonlinear regression analysis of data points with a computer assisted program Prism® yields both the IC50 and the Ki values of test compounds with 95% confidence limits.
The amount of displacement by the test compound is given in percent (%) inhibition and is derived from the following equation: [formula] where B0 is the amount of CPM bound in the presence of the testing agent. NSB represents the CPM bound in the presence of a saturating concentration of a displacer and TB represents the total amount of CPM bound at zero (0) concentration of test compound.
Alternatively, a linear regression line of decline of data points is plotted, from which the IC50 value can be read off and the Ki value determined by solving the following equation: [formula] where L is the concentration of the radioactive ligand used and KD is the dissociation constant of the ligand for the receptor, both expressed in nM.

T1 sequence (P50406 whole entry): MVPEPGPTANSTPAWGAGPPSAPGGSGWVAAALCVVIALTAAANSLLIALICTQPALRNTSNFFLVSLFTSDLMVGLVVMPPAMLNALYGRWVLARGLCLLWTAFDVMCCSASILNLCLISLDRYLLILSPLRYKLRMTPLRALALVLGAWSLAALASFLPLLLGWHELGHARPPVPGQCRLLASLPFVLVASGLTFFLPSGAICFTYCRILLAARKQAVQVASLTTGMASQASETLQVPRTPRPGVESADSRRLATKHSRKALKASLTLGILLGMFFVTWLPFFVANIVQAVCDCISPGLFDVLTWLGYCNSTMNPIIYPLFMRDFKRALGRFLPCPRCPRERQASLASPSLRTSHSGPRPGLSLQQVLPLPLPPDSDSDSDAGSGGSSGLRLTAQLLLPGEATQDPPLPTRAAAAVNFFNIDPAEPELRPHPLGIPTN

Compound `Cc1nc(Cn2c(-c3ccc(Cl)cc3)c(C=CNNC3=NCCN3)c3ccccc32)cs1` [Example 102, {[2-(4-chlorophenyl)-1((2-methyl-thiazol-4-yl)methyl)-1H-indol-3-yl]methylene}-N′-(4,5-dihydro-1H-imidazol-2-yl)-N-methylhydrazine] returned an inhibition at 1 µM of 62.7%. Compound `CCn1c(-c2ccc(Cl)cc2)c(C=NNC(=N)N)c2ccccc21` [Example 103, 2-{[2-(4-chloro-phenyl)-1-ethyl-1H-indol-3-yl]-methylene}hydrazinecarboximidamide] displayed an inhibition at 1 µM of 80.1%.

With `CCn1c(-c2ccc(Cl)cc2)c(C=NN(C)C2=NCCN2)c2ccccc21` [Example 104, N-{[2-(4-chloro-phenyl)-1-ethyl-1H-indol-3-yl]-methylene}-N′-(4,5-dihydro-1H-imidazol-2-yl)-N-methylhydrazine], the “% Inhibition” value was 100.0%. As for `CC(=NNC(=N)N)c1c(-c2ccc(Cl)cc2)n(CCC#N)c2ccccc12` [Example 107, 2-{1-[2-(4-chloro-phenyl)-1-(2-cyano-ethyl)-1H-indol-3-yl]-ethylidene}hydrazinecarboximidamide], testing at 1 µM gave an inhibition of 87.2%. `N#CCCn1c(-c2ccc(Cl)cc2)c(C=NNC(=N)N)c2ccccc21` [Example 108, 2-{[2-(4-chloro-phenyl)-1-(2-cyano-ethyl)-1H-indol-3-yl]-methylene}hydrazinecarboximidamide] yielded an inhibition at 1 µM of 92%. For the compound `CN(N=Cc1c(-c2ccc(Cl)cc2)n(CCC#N)c2ccccc12)C1=NCCN1` [Example 109, N-{[2-(4-chloro-phenyl)-1-(2-cyano-ethyl)-1H-indol-3-yl]-methylene}-N′-(4,5-dihydro-1H-imidazol-2-yl)-N-methylhydrazine], the “% Inhibition” value was 99.1%. Same read-out and setting: for `N=C(N)NN=Cc1c(-c2ccc(Cl)cc2)n(CCc2ccccc2)c2ccccc12` [Example 110, 2-{[2-(4-chloro-phenyl)-1-(2-phenethyl)-1H-indol-3-yl]-methylene}hydrazinecarboximidamide] the value was 20.9%. On to `CN(N=Cc1c(-c2ccc(Cl)cc2)n(CCc2ccccc2)c2ccccc12)C1=NCCN1` [Example 111, N-{[2-(4-chloro-phenyl)-1-(2-phenethyl)-1H-indol-3-yl]-methylene}-N′-(4,5-dihydro-1H-imidazol-2-yl)-N-methylhydrazine], for which the “% Inhibition” value came to 37.5%. Consider `C=CCCn1c(-c2ccc(Cl)cc2)c(C=NN(C)C2=NCCN2)c2ccccc21` [Example 112, N-{[1-(3-butenyl)-2-(4-chloro-phenyl)-1H-indol-3-yl]-methylene}-N′-(4,5-dihydro-1H-imidazol-2-yl)-N-methylhydrazine], for which the “% Inhibition” value is 85.1%. `N=C(NCCO)NN=Cc1c(-c2ccc(Cl)cc2)[nH]c2ccccc12` [Example 113, 2-{[2-(4-chlorophenyl)-1H-indol-3-yl]methylidene}-N-(2-hydroxyethyl)-1hydrazinecarboximidamide] came in with an inhibition at 1 µM of 84.1%. As to `CN=C(NCCO)NN=Cc1c(-c2ccc(Cl)cc2)[nH]c2ccccc12` [Example 114, 2-{[2-(4-chlorophenyl)-1H-indol-3-yl]methylidene}-N-(2-hydroxyethyl)-N′-methyl-1hydrazinecarboximidamide], the inhibition at 1 µM was found to be 31.6%. With `N=C(NN=Cc1c(-c2ccc(Cl)cc2)[nH]c2ccccc12)NC1CCCC1` [Example 115, 2-{[2-(4-chlorophenyl)-1H-indol-3-yl]methylidene}-N-cyclopentyl-1hydrazinecarboximidamide], the inhibition at 1 µM came to 49.5%.

`CN=C(NN=Cc1c(-c2ccc(Cl)cc2)[nH]c2ccccc12)NC1CCCC1` [Example 116, 2-{[2-(4-chlorophenyl)-1H-indol-3-yl]methylidene}-N-cyclopentyl-N′-methyl-1hydrazinecarboximidamide] displayed an inhibition at 1 µM of 59.5%. For the compound `N=C(NCc1ccccc1)NN=Cc1c(-c2ccc(Cl)cc2)[nH]c2ccccc12` [Example 117, 2-{[2-(4-chlorophenyl)-1H-indol-3-yl]methylidene}-N-benzyl-1hydrazinecarboximidamide], the inhibition at 1 µM was determined as 69%.

As a reminder, the inhibition is the share of the control response that was lost under treatment. High values mean strong suppression, low ones little suppression. What is called % Inhibition is how much of the control response was suppressed.
